The values that follow come from ChEMBL document CHEMBL5634147, “Multi-targeted anti-Alzheimer's agents: Synthesis, biological evaluation, and molecular modeling study of some pyrazolopyridine hybrids” (Eur J Med Chem, 2023).

In one data set the target is Acetylcholinesterase (Homo sapiens, UniProt P22303). Briefly: Inhibition of human AChE using acetylthiocholine iodide as substrate measured after 15 to 20 mins by DTNB reagent based Ellman's method. On the technique in general: DTNB colorimetry detects thiols as they appear.
Chain of Acetylcholinesterase (P22303 whole entry): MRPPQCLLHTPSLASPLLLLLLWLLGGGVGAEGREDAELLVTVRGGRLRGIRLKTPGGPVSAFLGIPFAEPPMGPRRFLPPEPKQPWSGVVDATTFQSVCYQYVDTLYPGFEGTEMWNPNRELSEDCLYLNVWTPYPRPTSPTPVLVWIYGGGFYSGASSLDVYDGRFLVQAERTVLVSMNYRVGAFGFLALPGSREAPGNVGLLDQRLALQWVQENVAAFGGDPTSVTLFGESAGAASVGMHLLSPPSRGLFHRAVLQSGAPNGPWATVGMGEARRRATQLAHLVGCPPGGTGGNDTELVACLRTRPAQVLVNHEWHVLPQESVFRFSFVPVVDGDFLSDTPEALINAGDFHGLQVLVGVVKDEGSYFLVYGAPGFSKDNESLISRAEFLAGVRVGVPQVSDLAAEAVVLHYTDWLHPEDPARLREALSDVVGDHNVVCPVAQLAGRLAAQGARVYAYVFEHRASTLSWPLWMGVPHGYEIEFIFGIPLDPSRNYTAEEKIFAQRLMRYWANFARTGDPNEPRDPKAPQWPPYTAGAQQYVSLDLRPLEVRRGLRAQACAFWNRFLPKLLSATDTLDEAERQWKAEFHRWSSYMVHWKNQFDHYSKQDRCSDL
Data set [1] has as its target Glycogen synthase kinase-3 beta (Homo sapiens, UniProt P49841). Briefly: Inhibition of human GSK3beta by luminescent microplate reader method.
Data set [2] is described as follows: Cytotoxicity against human WI-38 cells assessed as inhibition of cell growth incubated for 72 hrs by MTT assay. The format is toxicity, cell-based. Background: Tetrazolium assays rely on reduction of a dye to a coloured formazan, in cell work by metabolically active cells.
Data set [3] can be described thus: Metal chelating activity assessed as Cu2+-compound complex formation by measuring hyperchromic shift in presence of CuSO4 by UV-Vis spectroscopy.
A short description of data set [4]: Metal chelating activity assessed as Fe2+-compound complex formation by measuring hyperchromic shift in presence of FeSO4 by UV-Vis spectroscopy.
Another data set deals with Cholinesterase (Homo sapiens, UniProt P06276). Briefly: Inhibition of human BuChE measured after 15 to 20 mins by DTNB reagent based Ellman's method.
Chain of Cholinesterase (P06276 whole entry): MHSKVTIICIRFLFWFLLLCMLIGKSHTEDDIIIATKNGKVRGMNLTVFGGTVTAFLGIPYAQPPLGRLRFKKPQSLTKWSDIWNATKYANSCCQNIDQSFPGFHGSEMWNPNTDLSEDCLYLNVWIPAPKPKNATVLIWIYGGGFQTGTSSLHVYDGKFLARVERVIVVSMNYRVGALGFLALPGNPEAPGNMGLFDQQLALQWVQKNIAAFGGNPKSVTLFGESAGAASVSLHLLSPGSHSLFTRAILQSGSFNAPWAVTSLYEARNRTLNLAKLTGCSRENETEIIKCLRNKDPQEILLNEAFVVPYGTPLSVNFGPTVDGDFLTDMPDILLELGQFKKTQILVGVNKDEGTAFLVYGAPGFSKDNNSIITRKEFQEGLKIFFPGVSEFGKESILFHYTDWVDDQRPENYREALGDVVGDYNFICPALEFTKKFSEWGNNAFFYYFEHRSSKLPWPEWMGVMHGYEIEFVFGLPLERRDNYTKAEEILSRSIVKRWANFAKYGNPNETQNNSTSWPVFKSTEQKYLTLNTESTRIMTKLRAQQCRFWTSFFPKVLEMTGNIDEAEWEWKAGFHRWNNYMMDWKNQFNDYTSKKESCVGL
Data set [5] deals with T1, Microtubule-associated protein tau (Homo sapiens, UniProt P10636). Briefly: Inhibition of human tau protein aggregation incubated for 1.5 hrs by TMB substrate based ELISA.
T1 sequence (P10636 whole entry): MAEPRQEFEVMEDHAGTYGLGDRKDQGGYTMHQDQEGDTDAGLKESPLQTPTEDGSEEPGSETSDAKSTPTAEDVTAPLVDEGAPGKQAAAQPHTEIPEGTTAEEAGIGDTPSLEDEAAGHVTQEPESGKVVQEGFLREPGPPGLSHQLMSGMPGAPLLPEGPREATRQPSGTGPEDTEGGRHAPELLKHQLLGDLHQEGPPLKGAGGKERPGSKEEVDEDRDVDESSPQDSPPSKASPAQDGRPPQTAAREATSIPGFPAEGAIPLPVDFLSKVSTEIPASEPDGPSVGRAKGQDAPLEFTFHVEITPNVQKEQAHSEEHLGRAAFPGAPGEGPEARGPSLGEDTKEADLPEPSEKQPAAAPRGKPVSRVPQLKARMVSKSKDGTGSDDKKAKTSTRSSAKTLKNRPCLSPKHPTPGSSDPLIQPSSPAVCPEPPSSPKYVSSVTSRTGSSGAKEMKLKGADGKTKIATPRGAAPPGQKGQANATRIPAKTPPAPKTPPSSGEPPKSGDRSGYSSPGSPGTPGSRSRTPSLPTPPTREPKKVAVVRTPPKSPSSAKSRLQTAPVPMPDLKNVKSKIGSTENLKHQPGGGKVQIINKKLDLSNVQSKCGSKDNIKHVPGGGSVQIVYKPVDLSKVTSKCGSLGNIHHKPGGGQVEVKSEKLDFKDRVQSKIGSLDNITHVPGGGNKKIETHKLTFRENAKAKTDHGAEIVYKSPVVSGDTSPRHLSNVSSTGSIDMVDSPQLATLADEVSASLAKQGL
The target in data set [6] is T2, Amyloid-beta precursor protein (Homo sapiens, UniProt P05067). Briefly: Inhibition of self mediated Amyloid beta (1 to 42) (unknown origin) aggregation measured every 5 mins by ThT fluorescence based assay.
T2 sequence (P05067 whole entry): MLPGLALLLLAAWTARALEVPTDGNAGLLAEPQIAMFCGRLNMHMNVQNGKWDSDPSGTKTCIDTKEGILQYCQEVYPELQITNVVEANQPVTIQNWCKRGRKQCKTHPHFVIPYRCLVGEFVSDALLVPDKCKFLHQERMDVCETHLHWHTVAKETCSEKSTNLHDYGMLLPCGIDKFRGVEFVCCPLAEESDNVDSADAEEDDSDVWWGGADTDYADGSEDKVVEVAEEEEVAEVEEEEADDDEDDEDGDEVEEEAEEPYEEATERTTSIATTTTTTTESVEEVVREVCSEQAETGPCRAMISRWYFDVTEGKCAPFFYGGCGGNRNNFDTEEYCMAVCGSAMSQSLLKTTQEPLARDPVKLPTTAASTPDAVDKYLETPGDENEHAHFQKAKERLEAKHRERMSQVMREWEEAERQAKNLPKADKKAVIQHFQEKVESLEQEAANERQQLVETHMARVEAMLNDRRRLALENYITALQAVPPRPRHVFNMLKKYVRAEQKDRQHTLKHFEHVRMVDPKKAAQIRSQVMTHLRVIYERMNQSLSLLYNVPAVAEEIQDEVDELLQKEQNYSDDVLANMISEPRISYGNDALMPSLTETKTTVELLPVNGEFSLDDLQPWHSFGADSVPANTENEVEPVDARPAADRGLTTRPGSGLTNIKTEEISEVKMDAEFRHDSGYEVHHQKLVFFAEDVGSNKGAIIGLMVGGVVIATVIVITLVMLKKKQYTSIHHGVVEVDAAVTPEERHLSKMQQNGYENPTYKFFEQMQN
The target of data set [7] is T1, Microtubule-associated protein tau. Briefly: Inhibition of human tau protein aggregation at 10 uM incubated for 1.5 hrs by TMB substrate based ELISA relative to control. A general note: In an ELISA, binding on a coated surface is turned into a signal by an enzyme label.
Data set [8] deals with T2, Amyloid-beta precursor protein. Briefly: Inhibition of self-mediated Amyloid beta (1 to 42) (unknown origin) aggregation at 10 uM measured every 5 mins by ThT fluorescence based assay relative to control.
Data set [9] can be described thus: Cytotoxicity against human WI-38 cells assessed as cell viability upto 3.125 uM incubated for 72 hrs by MTT assay relative to control. The format is toxicity, cell-based. The note with it: read-out: Activity.
The nature of data set [10]: Metal chelating activity assessed as Zn2+-compound complex formation by measuring hyperchromic shift in presence of ZnSO4 by UV-Vis spectroscopy.
The subject of a further data set is human AChE. As to the kind of experiment: Safety index, ratio of IC50 for cytotoxicity against human WI-38 cells to IC50 for human AChE. The format is toxicity, cell-based. As to conditions: read-out: Ratio IC50.
The nature of data set [11]: Metal chelating activity assessed as Zn2+-compound complex formation by measuring hypochromic shift in presence of ZnSO4 by UV-Vis spectroscopy.
Data set [12] can be described thus: Metal chelating activity assessed as Cu2+-compound complex formation by measuring hypochromic shift in presence of CuSO4 by UV-Vis spectroscopy.

The structures appear in SMILES notation. Activity calls are given as the source filed them. The rule behind the calls is not given here. Non-standard residues stand in square brackets, D forms with d. Residues, ends and D or L forms follow the SMILES beside them. *: point of attachment. Myristoyl = CCCCCCCCCCCCCC(=O)*; pS = N[C@@H](COP(=O)(O)O)C(=O)O

Chain of Glycogen synthase kinase-3 beta (P49841 whole entry): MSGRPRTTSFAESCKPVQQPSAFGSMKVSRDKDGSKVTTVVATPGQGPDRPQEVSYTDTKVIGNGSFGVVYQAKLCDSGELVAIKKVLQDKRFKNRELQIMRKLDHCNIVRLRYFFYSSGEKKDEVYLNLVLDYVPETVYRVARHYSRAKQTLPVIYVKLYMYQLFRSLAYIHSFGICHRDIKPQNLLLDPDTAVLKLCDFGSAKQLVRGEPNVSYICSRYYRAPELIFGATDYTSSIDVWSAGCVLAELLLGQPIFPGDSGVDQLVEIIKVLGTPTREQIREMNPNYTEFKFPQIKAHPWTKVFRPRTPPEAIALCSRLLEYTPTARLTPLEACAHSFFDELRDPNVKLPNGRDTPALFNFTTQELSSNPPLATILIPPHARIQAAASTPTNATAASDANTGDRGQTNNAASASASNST

The IC50 is the concentration at which inhibition is half-maximal. In turn, `COc1cc(-c2cc(-c3ccccc3)nc3[nH]nc(N)c23)cc(OC)c1OC` displayed an IC50 at Acetylcholinesterase of 1890 nM.
With `COc1ccc(-c2cc(-c3ccc(Br)cc3)c3c(N)n[nH]c3n2)cc1`, on Acetylcholinesterase, half-maximal inhibition (IC50) was put at 3720 nM.
Turning to `COc1cc(-c2cc(-c3ccc(Br)cc3)nc3[nH]nc(N)c23)cc(OC)c1OC`, the IC50 at Acetylcholinesterase worked out at 630 nM.
Turning to `COc1ccc(-c2cc(-c3ccc(OC)cc3)c3c(N)n[nH]c3n2)cc1`, the IC50 at Acetylcholinesterase turned out to be 260 nM.
Consider `COc1ccc(-c2cc(-c3ccccc3)nc3[nH]nc(N)c23)cc1OC`, for which the IC50 against Acetylcholinesterase was 9630 nM.
`COc1ccc(-c2cc(-c3ccc(Br)cc3)nc3[nH]nc(N)c23)cc1`: at Acetylcholinesterase, the IC50 was 350 nM.
As a reminder, the inhibition is how much of the control response was suppressed. Lower therefore signals a weak effect. For `Nc1n[nH]c2nc(-c3ccc(Br)cc3)cc(-c3ccc(Br)cc3)c12`, the 50% inhibitory concentration (IC50) against Acetylcholinesterase is 170 nM; in data set [1], 210 nM; against Cholinesterase it was 170 nM; in data set [5] it was 11600 nM; in data set [6] it was 460 nM. Besides, in [2], the IC50 at 72 h turned out to be 58300 nM. The outcome in data set [3], in [4] and in data set [10] was Active. Moreover, the inhibition in data set [7] is 66%; in data set [8], 79%. Also, the viability at 72 h, 3.125 µM in [9] came to 100%. The selectivity ratio with human AChE came to 343.
In the case of `COc1ccc(-c2cc(-c3ccccc3)nc3[nH]nc(N)c23)cc1`, half-maximal inhibition against Acetylcholinesterase (IC50) was put at 22400 nM.
For the molecule `COc1ccc(-c2cc(-c3ccc(Br)cc3)nc3[nH]nc(N)c23)cc1OC`, the IC50 is 160 nM at Acetylcholinesterase; 260 nM in data set [1]; 690 nM at Cholinesterase; 20300 nM in data set [5]; 770 nM in [6]. The IC50 at 72 h in [2] amounted to 84500 nM. In addition, the outcome in [4], in data set [11] and in [12] was Active. Further, the inhibition in data set [7] is 60%; in data set [8] it was 75%. Further, the viability at 72 h, 3.125 µM in [9] stood at 100%. For the same molecule, the selectivity ratio with human AChE came out at 528.
`Nc1n[nH]c2nc(-c3ccccc3)cc(-c3ccc(Br)cc3)c12` registered an IC50 on Acetylcholinesterase of 2240 nM.
As for `COc1ccc(-c2cc(-c3ccc(OC)c(OC)c3)c3c(N)n[nH]c3n2)cc1`, on Acetylcholinesterase, the IC50 came to 810 nM.
`COc1ccc(-c2cc(-c3cc(OC)c(OC)c(OC)c3)c3c(N)n[nH]c3n2)cc1`: the IC50 against Acetylcholinesterase was determined as 6010 nM.
Regarding `CCCCCCCCCCCCCC(=O)N[C@@H](CCCCN)C(=O)N[C@@H](CCC(=O)O)C(=O)N[C@@H](C)C(=O)N1CCC[C@H]1C(=O)N1CCC[C@H]1C(=O)N[C@@H](CO)C(=O)N1CCC[C@H]1C(=O)N1CCC[C@H]1C(=O)N[C@@H](CCC(N)=O)C(=O)N[C@@H](COP(=O)(O)O)C(=O)N1CCC[C@H]1C(=O)O` (Myristoyl-KEAPPSPPQ[pS]P-OH), the IC50 in data set [1] came out at 1000 nM.
`Nc1n[nH]c2nc(-c3ccccc3)cc(-c3ccccc3)c12` registered a half-maximal inhibitory concentration (IC50) against Acetylcholinesterase of 5270 nM.
